Source: patent US10968190B2, “Processes for preparing oxathiazin-like compounds” (GEISTLICH PHARMA AG, priority 2014, dated 2021)
Converted amounts (≈) assume the structure as drawn. Like-named read-outs stand apart in the source and are kept apart here.

Tests used:
[1] = tested on: cancers identified herein; test: Administration to patients having cancers (Example 5); format: in vivo; details: Example 5, present tense
Protocol: Each of these compounds is administered with Vitamin D3, a derivative, metabolite or analog thereof and the combination is found to increase the anti-tumor effects of the compounds.

[2] = tested on: human glioma cell line LN-229; test: Cytotoxicity assay in LN-229 cells (crystal violet); format: cell-based; details: for OD (absorbance at 540 nm; high values = high cell viability): 24 h
Protocol: Cell lines: The human glioma cell line LN-229 was used as described previously (Rodak et al. 2005) as well as the human colon adenocarcinoma cell line SW480.
Cytotoxicity assay: Dissociated LN-229 cells were seeded into 96-well plates at a density of 10^4 cells per well in 100 μl of culture medium. […] Triplicate cultures were prepared for each sample. After 24 h of incubation at […], the remaining adherent viable cells were stained using crystal violet as described (Rodack et al. 2005). Cell viability was determined by measuring the absorbancy at 540 nm. The results are expressed as killing rate given by the difference between 100% of cells and percentage of cells surviving. EC50 values correspond to the concentration inducing 50% cell death.

[3] = tested on: cancer stem cells (CSC) derived from four glioblastoma patients; test: Cytotoxicity in cancer stem cells from glioblastoma patients; format: cell-based, human; details: for Cytotoxicity EC50, Mean ± SD: mean of CSCs from four glioblastoma patients
Protocol: Tissue samples from high grade gliomas WHO grade IV from newly diagnosed patients (medium age of 54±10 years) were minced mechanically, digested enzymatically and the dissociated cells were filtered. The isolated tumor cells were cultured as bulk cells. Cancer Stem Cells (CSCs) were isolated by the formation of neurospheres under neurosphere conditions (using neurobasal medium) from the murine SMA 560 glioma cell line or from freshly isolated human glioblastoma cells.
The number of remaining adherent cells were stained (crystal violet or Alamar Blue) and quantified by absorbance measurements (540 nm). Cell survival was expressed as the percentage of cells surviving relative to the number of cells surviving in untreated control cultures. The results are given as % killing rate or EC50 as the dose required for half-maximal cytotoxicity. Results
CSCs were isolated from glioblastoma tissue resected from four patients. […].

[4] = tested on: pancreatic primary tumors (Bo 73); test: Xenograft model of pancreatic primary tumors Bo 73; format: in vivo; details: Bo 73, observed for 15 days; differences not statistically relevant
Description: (§1) However, the differences in tumor volumes were not statistically relevant, likely due to the short duration of the study and the slow growth rate of the tumors.

MiaPaca2 tumor = test: MiaPaca2 subcutaneous tumor model in nude mice; format: in vivo, nude mice (NMRI-Foxn1 nu/nu); details: 500 mg/kg i.p. on alternating days
[5] = Toxicity in mice during the tumor study; details: 500 mg/kg i.p. on alternating days
Protocol: 1×10^7 tumor cells (PancTu-I and MiaPaca 2) were injected subcutaneously into the flank.
Tumors were grown to a size of 200 mm^3 before the treatment was started. Mice were treated on alternating days with 500 mg/kg*body weight (BW).

tumor stem cells = test: Killing of tumor stem cells in tissue culture in vitro; format: cell-based
[6] = tested on: human glioblastoma bulk cells; details: Rodak et al., J. Neurosurg., 102, 1055-68, 2005; cited from earlier work
PancTu I tumor = test: PancTu I subcutaneous tumor model in nude mice; format: in vivo, nude mice (NMRI-Foxn1 nu/nu); details: 500 mg/kg i.p. on alternating days
[7] = tested on: murine SMA560 glioma cancer stem cells (CSC); details: for sensitivity of CSCs versus corresponding glioma bulk cells, based on EC50: mouse SMA 560 CSCs vs bulk cells
Description: (§2) The mouse SMA560 glioma cell line was used to provide tumor bulk cells and CSCs. […] Mouse CSCs were generated from the SMA560 glioma cell line and cultured for 7 days.

[8] = tested on: pancreatic primary tumors (Bo 70); test: Xenograft model of pancreatic primary tumors Bo 70; format: in vivo; details: Bo 70, observed for 23 days
Description: as §1

[9] = tested on: multicellular pancreatic tumor (Panc Tul or BxPC-3) spheroids; test: Pancreatic stem cell-like multicellular spheroid toxicity assay; format: cell-based; details: taurolidine 500 μM, compound 2250 1000 μM, 48 hours
Description: Multicellular spheroids are composed of tumor cells growing in a 3-dimensional structure stimulating the growth, micro-environmental conditions and stem cell-like characteristics of real tumors. The multicellular tumor spheroid (MCTS) model compensates for many of the deficiencies seen in monolayer cultures. Spheroids on the scale of 200-500 μm develop chemical gradients of oxygen, nutrients, and catabolites, while having morphological and functional features similar to tumors. Therefore, assays utilizing the MCTS model allow for the assessment of drug penetration and are more predictive of in vivo success compared with monolayer cultures. MCTS assays are a tumor model system of intermediate complexity between standard monolayer and tumors in vivo.
Pancreatic tumor cells (Panc Tu-1, BxPC-3, Mia Paca-2, ASPC1) and pancreatic primary tumor cells (Bo80) were seeded in ultra-low adhesion plates in special stem cell media.
Pancreatic tumor cells (ASPC1, Mia Paca-2, Panc Tul, BxPC-3) and pancreatic primary tumor cells (Bo80) were raised in monolayer culture before seeding in ultra low adhesion plates under conditions of special stem cell media to form multicellular spheroids and passed through a cell strainer to exclude aggregates. […]

[10] = Half-life in human fresh blood in vitro by GC; format: in vitro ADME; details: same test, human blood
[11] = tested on: murine SMA 560 bulk glioma cells; details: SMA 560 bulk cells, 24 h and 48 h incubation
Description: as §2

[12] = Portnow et al., Clin Cancer Res 15, 7092-7098, 2009; cited from earlier work

O=S1(=O)CCNCO1 [A1]
effectiveness in treating cancers in patients [1]: effective in treating such cancers | safety for use in patients [1]: safe for use in patients

O=S1(=O)CCOCO1 [A3]
effectiveness in treating cancers in patients [1]: effective in treating such cancers | safety for use in patients [1]: safe for use in patients

O=S1(=O)CCN(CN2COCCS2(=O)=O)CN1 [B1]
effectiveness in treating cancers in patients [1]: effective in treating such cancers | safety for use in patients [1]: safe for use in patients

O=S1(=O)CCN(CN2CCS(=O)(=O)OC2)CN1 [B2]
effectiveness in treating cancers in patients [1]: effective in treating such cancers | safety for use in patients [1]: safe for use in patients

O=S1(=O)CCN(CN2CCS(=O)(=O)OC2)CO1 [B3]
effectiveness in treating cancers in patients [1]: effective in treating such cancers | safety for use in patients [1]: safe for use in patients

O=S1(=O)CCOCN1CN1COCCS1(=O)=O [compound 2245]
effectiveness in treating cancers in patients [1]: effective in treating such cancers | safety for use in patients [1]: safe for use in patients

CN1COCCS1(=O)=O [compound 2255]
effectiveness in treating cancers in patients [1]: effective in treating such cancers | safety for use in patients [1]: safe for use in patients

O=S1(=O)CCN(CN2CCS(=O)(=O)NC2)CN1 [taurolidine]
OD (absorbance at 540 nm; high values = high cell viability) ([2]; 4 μg/ml): 1.530 | OD (absorbance at 540 nm; high values = high cell viability) ([2]; 8 μg/ml): 1.478 | OD (absorbance at 540 nm; high values = high cell viability) ([2]; 15.5 μg/ml): 1.434 | OD (absorbance at 540 nm; high values = high cell viability) ([2]; 31 μg/ml): 1.132 | OD (absorbance at 540 nm; high values = high cell viability) ([2]; 62.5 μg/ml): 0.317 | OD (absorbance at 540 nm; high values = high cell viability) ([2]; 250 μg/ml): 0.165 | OD (absorbance at 540 nm; high values = high cell viability) ([2]; 500 μg/ml): 0.098 | OD (absorbance at 540 nm; high values = high cell viability) ([2]; 1000 μg/ml): 0.109 | EC50 ([2]; Homo sapiens, LN-229, 24 h, LN-229 cells, 24 h incubation, read-out: EC50 (concentration inducing 50% cell death)): 45 mg/L (≈ 158 µM) | EC50 (concentration inducing 50% cell death) ([2]; LN-229 cells, 24 h incubation): 50 mg/L (≈ 176 µM) | EC50 ([3]; Homo sapiens, 24 h, read-out: Cytotoxicity EC50 (μg/ml) 24 h, CSC GBM #4, 24 h): 12.5 µg/mL | EC50 ([3]; Homo sapiens, 24 h, read-out: Cytotoxicity EC50 (μg/ml) 24 h, CSC GBM #5, 24 h): 14 µg/mL | EC50 ([3]; Homo sapiens, 24 h, read-out: Cytotoxicity EC50, Mean ± SD, mean of CSCs from four glioblastoma patients, 24 h): 13 ± 2 µg/mL | EC50 ([3]; Homo sapiens, GBM3, 24 h, read-out: Cytotoxicity EC50 (μg/ml) 24 h, CSC GBM #3, 24 h): 15 µg/mL | EC50 ([3]; Homo sapiens, GBM6, 24 h, read-out: Cytotoxicity EC50 (μg/ml) 24 h, CSC GBM #6, 24 h): 10 µg/mL | relative tumor volume compared to control [4]: slightly reduced relative tumor volume compared to control | decrease of MiaPaca2 tumor volume compared to control (MiaPaca2 tumor): about 2 fold | toxic effect on the mice during the study [5]: no toxic effect | concentration effective at killing tumor stem cells (tumor stem cells): 0.01 µg/mL | EC50 [6]: ~50 mg/L (≈ 176 µM) | decrease of PancTu I tumor volume compared to control (PancTu I tumor): about 3 fold | sensitivity of CSCs versus corresponding glioma bulk cells, based on EC50 [7]: about 3 fold | tumor volume compared to control [8]: significantly reduce tumor volume compared to control | effect on pancreatic stem cell like multicellular spheroid cultures [9]: antineoplastic effect | half-life [10]: ~30 min

O=S1(=O)CCNCN1 [taurultam]
Cytotoxicity EC50 [11]: 19.3 mg/L | Cytotoxicity EC50 (μg/ml) 24 h ([3]; CSC GBM #3, 24 h): 10.5 µg/mL | Cytotoxicity EC50 (μg/ml) 24 h ([3]; CSC GBM #4, 24 h): 12.5 µg/mL | Cytotoxicity EC50 (μg/ml) 24 h ([3]; CSC GBM #5, 24 h): 11 µg/mL | Cytotoxicity EC50 (μg/ml) 24 h ([3]; CSC GBM #6, 24 h): 9 µg/mL | Cytotoxicity EC50, Mean ± SD ([3]; 24 h): 11 ± 1.4 mg/L | Cytotoxicity EC50, Mean ± SD ([3]; 24 h, listed as Taurultam): 11 ± 1.4 mg/L | EC50 [6]: ~50 mg/L (≈ 367 µM) | sensitivity of CSCs versus corresponding glioma bulk cells, based on EC50 [7]: ~2 fold | Cytotoxicity EC50 ([7]; murine CSCs cultured 7 days, 24 hours treatment): 10 mg/L

Cn1nnc2c(C(N)=O)ncn2c1=O [temozolamide]
Cytotoxicity EC50 (μg/ml) 24 h ([3]; CSC GBM #3, 24 h): 84.4 µg/mL | EC50 ([3]; CSC GBM #3, 24 h, read-out: Cytotoxicity EC50 24 h): 435 µM | Cytotoxicity EC50 (μg/ml) 24 h ([3]; CSC GBM #4, 24 h): 97 µg/mL | EC50 ([3]; CSC GBM #4, 24 h, read-out: Cytotoxicity EC50 24 h): 500 µM | Cytotoxicity EC50 (μg/ml) 24 h ([3]; CSC GBM #5, 24 h): 48.5 µg/mL | EC50 ([3]; CSC GBM #5, 24 h, read-out: Cytotoxicity EC50 24 h): 250 µM | Cytotoxicity EC50 (μg/ml) 24 h ([3]; CSC GBM #6, 24 h): 44 µg/mL | EC50 ([3]; CSC GBM #6, 24 h, read-out: Cytotoxicity EC50 24 h): 230 µM | Cytotoxicity EC50, Mean ± SD ([3]; 24 h): 68.5 ± 26 mg/L | peak plasma levels measured in patients [12]: 13.7 µg/mL
